Like-named read-outs stand apart in the source and are kept apart here.
Tests used:
[1] = Cell viability by CellTiter Glo; format: cell-based, human; settings: human; HBV-infected HepG2-NTCP cells, three days of treatment
Description: (§1) Production of wild-type HBV virions from HepAD38 cells was performed as previously described. HepG2-NTCP cells were bulk plated on collagen coated flasks at a density of 6x10^6 cells/ T175 flask. Following a 3-day incubation at 37°C, cells were infected with genotype D (AD38) virus at […] in the presence of 4% PEG8000 and 2.5% DMSO. HepG2-NTCP cells were washed 3 times with OPTI-MEM and maintained in Dulbecco’s modified Eagle’s medium (DMEM) supplemented with 2% FBS and 2.5% DMSO for the following 4 days. HBV-infected HepG2-NTCP cells were trypsinized, resuspended in DMEM supplemented with 2% FBS and 1% DMSO, and seeded onto serially diluted small molecule inhibitors at a 0.5% final DMSO concentration (S1 Table) in 384-well collagen coated plates at a density of 20,000 cells/well for 3 additional days.
(§2) Cells were analyzed for cell viability by addition of CellTiter Glo (Promega) to the assay plates and analyzed using an Envision plate reader (Perkin Elmer). CC50 values were calculated from the fit of the dose−response curves to a four-parameter equation. All CC50 values represent geometric mean values of a minimum of four determinations.
(§3) (A) Schematic overview of the pathways involved in lipid biosynthesis, such as DNL, TG esterification and cholesterol biosynthesis. […] (B-D) HepG2-NTCP cells infected with HBV for three days were treated with selected compounds in an eight-point dose response. After three days of treatment, extracellular HBsAg and HBeAg levels as well as cell viability were measured.

[2] = system: HBsAg secretion in HBV-infected HepG2-NTCP cells; assay: microbe, parasite or virus in culture; format: cell-based, Hepatitis B virus genotype D (AD38); settings: for EC50: read-out: HBsAg, EC50; for inhibition of HBsAg secretion: maximal (up to)
Description: as §1
(§4) Cell culture supernatant (3 μL) was transferred to two 1536-well plates and HBsAg and HBeAg levels subsequently measured by HTRF (Cisbio). HBsAg was measured using Terbium conjugated (XTL-17) and D2 receptor conjugated (XTL19) anti-HBsAg antibodies, while HBeAg was measured using Terbium conjugated (GWB-F19420, Genway Biotech) and D2 receptor conjugated (GWB-24DEF, Genway Biotech) anti-HBeAg antibodies. […] was measured using an Envision plate reader at emissions of 665 nm and 615 nm. The ratio of 665/615 was used to plot compound dose response curves and EC50 values were calculated from the fit of the dose−response curves to a four-parameter equation.
as §3

[3] = system: HBeAg in HBV-infected HepG2-NTCP cells; assay: microbe, parasite or virus in culture; format: cell-based, Hepatitis B virus genotype D (AD38); settings: read-out: HBeAg, EC50
Description: as §1, §4, §3

[4] = system: HBV-infected HepG2-NTCP cells; assay: Cell viability by CellTiter Glo; format: cell-based, human; settings: three days of treatment
Description: as §1, §2, §3

[5] = system: ACC1 and ACC2; design: method as in PMID 29705265, PMID 30059671; settings: cited from earlier work
[6] = HBV-infected HepG2-NTCP cells, three days of treatment, extracellular

Compound | CC50 at 3 days [1] | EC50 ([2]; Hepatitis B virus, 72 h) | EC50 ([3]; Hepatitis B virus, 72 h) | CC50 [4] | EC50 [2, 6] | EC50 [3, 6] | also measured
C=C(C)[C@@H]1CC[C@]2(CO)CC[C@]3(C)[C@H](CC[C@@H]4[C@@]5(C)CC[C@H](O)C(C)(C)[C@@H]5CC[C@]43C)[C@@H]12 [Betulin, (1R,3aS,5aR,5bR,7aR,9S,11aR,11bR,13aR,13bR)-3a-(hydroxymethyl)-5a,5b,8,8,11a-pentamethyl-1-(prop-1-en-2-yl)icosahydro-1H-cyclopenta[a]chrysen-9-ol] | > 10 µM | > 10 µM | > 10 µM | – | – | – | –
CC1=NN(c2ccc(OC(F)F)c(-c3cccnc3)c2)C(=O)C1C(=O)Nc1cccc(C(C)(F)F)c1 (stereo not shown) [ACSS2 Inhibitor, N-(3-(1,1-difluoroethyl)phenyl)-1-(4-(difluoromethoxy)-3-(pyridin-3-yl)phenyl)-3-methyl-5-oxo-4,5-dihydro-1H-pyrazole-4-carboxamide] | – | – | – | > 10 µM | > 10 µM | > 10 µM | –
Cc1nn(C)c2nc(NNC(=O)Nc3cc(Cl)nc(Cl)c3)cc(C(C)C)c12 [JTE-013, N-(2,6-dichloropyridin-4-yl)-2-(4-isopropyl-1,3-dimethyl-1H-pyrazolo[3,4-b]pyridin-6-yl)hydrazine-1-carboxamide] | – | – | – | > 10 µM | 6.7 µM | > 10 µM | –
Oc1ccc(Nc2nc(-c3ccc(Cl)cc3)cs2)cc1 [SKI-II, 4-((4-(4-chlorophenyl)thiazol-2-yl)amino)phenol] | > 10 µM | 8.84 µM | > 10 µM | – | – | – | –
CCCCCCCCc1ccc(CCC(N)(CO)CO)cc1 [FTY720, 2-amino-2-(4-octylphenethyl)propane-1,3-diol] | > 10 µM | > 10 µM | > 10 µM | – | – | – | –
CCN(CC)Cc1ccc(C(=O)N(CCc2ccccc2OC)[C@@H]2CCNC2)cc1 [SKI-1/S1P inhibitor, (R)-4-((diethylamino)methyl)-N-(2-methoxyphenethyl)-N-(pyrrolidin-3-yl)benzamide] | – | – | – | > 10 µM | 0.79 µM | > 10 µM | selectivity HBsAg versus HBeAg ([2]; HBV-infected HepG2-NTCP cells): selective for HBsAg; inhibition of HBsAg secretion ([2]; HBV-infected HepG2-NTCP cells): up to 80%
CC(C)N(C)c1nc2cc(C(=O)O)ccc2nc1-c1ccc(F)cc1 [BioE-115, 2-(4-fluorophenyl)-3-(isopropyl(methyl)amino)quinoxaline-6-carboxylic acid] | – | – | – | > 10 µM | > 10 µM | > 10 µM | –
O=C(O)c1ccccc1NS(=O)(=O)c1ccc(Cl)c([N+](=O)[O-])c1 [CPT2 Inhibitor, 2-((4-chloro-3-nitrophenyl)sulfonamido)benzoic acid] | – | – | – | > 10 µM | > 10 µM | > 10 µM | –
CCCc1cc(-c2nc(-c3ccc(C)cc3)cs2)ccn1 [Fatostatin, 2-(2-propylpyridin-4-yl)-4-(p-tolyl)thiazole] | > 10 µM | > 10 µM | > 10 µM | – | – | – | –
CCOC(=O)c1ccc(CN(Cc2ccc(-c3cccc(S(C)(=O)=O)c3)cc2)S(=O)(=O)c2c(C)cc(C)cc2C)o1 [LXR Inverse Agonist, ethyl 5-(((2,4,6-trimethyl-N-((3'-(methylsulfonyl)-[1,1'-biphenyl]-4-yl)methyl)phenyl)sulfonamido)methyl)furan-2-carboxylate] | – | – | – | > 10 µM | > 10 µM | > 10 µM | –
CCCCCCCCc1ccc(CC[C@](N)(CO)COP(=O)(O)O)cc1 [FTY720 (S)-phosphate, (S)-2-amino-2-(hydroxymethyl)-4-(4-octylphenyl)butyl dihydrogen phosphate] | – | – | – | > 10 µM | > 10 µM | > 10 µM | –
CCOC(=O)[C@@]1(CCCCCCOc2ccc(Cl)cc2)CO1 [Etomoxir, ethyl (R)-2-(6-(4-chlorophenoxy)hexyl)oxirane-2-carboxylate] | > 10 µM | > 10 µM | > 10 µM | – | – | – | –
COc1ccccc1[C@H](Cn1c(=O)n(C(C)(C)C(=O)O)c(=O)c2c(C)c(-c3ncco3)sc21)OC1CCOCC1 [FIR, Firsocostat] | – | – | – | – | – | – | liver fat reduction ([5]; observed clinically): ~ 30%; DNL inhibition ([5]; partial target inhibition observed clinically): ~ 70%
O=C(O)C[C@H]1CC[C@H](c2ccc(-c3ccc(Nc4ccc(C(F)(F)F)nc4)cn3)cc2)CC1 [Pradagilast, 2-((1r,4r)-4-(4-(5-((6-(trifluoromethyl)pyridin-3-yl)amino)pyridin-2-yl)phenyl)cyclohexyl)acetic acid] | > 10 µM | > 10 µM | > 10 µM | – | – | – | –
COC(=O)c1cc(Cl)c(O)c(S(=O)(=O)Nc2cc(-c3ccccc3)c(F)cc2F)c1 [ACLY Inhibitor, methyl 3-chloro-5-(N-(4,6-difluoro-[1,1'-biphenyl]-3-yl)sulfamoyl)-4-hydroxybenzoate] | – | – | – | > 10 µM | > 10 µM | > 10 µM | –
C[C@H]1CCN1c1nc(N2C[C@@H]3[C@@H](CC(=O)O)[C@@H]3C2)cc(C(F)(F)F)n1 [KHK Inhibitor, 2-((1R,5S,6R)-3-(2-((S)-2-methylazetidin-1-yl)-6-(trifluoromethyl)pyrimidin-4-yl)-3-azabicyclo[3.1.0]hexan-6-yl)acetic acid] | – | – | – | – | > 10 µM | > 10 µM | –
Cc1cc(C)c(-c2[nH]c(C3CC3)nc2C)cc1C(=O)N1CC(F)(c2ccc(C#N)cc2)C1 [FASN inhibitor, 4-(1-(5-(2-cyclopropyl-4-methyl-1H-imidazol-5-yl)-2,4-dimethylbenzoyl)-3-fluoroazetidin-3-yl)benzonitrile] | – | – | – | > 10 µM | 0.081 µM | > 10 µM | selectivity HBsAg versus HBeAg ([2]; HBV-infected HepG2-NTCP cells): selective for HBsAg; inhibition of HBsAg secretion ([2]; HBV-infected HepG2-NTCP cells): up to 80%
Nc1ncnc2c1C(=O)N(c1ccc([C@H]3CC[C@H](CC(=O)O)CC3)cc1)CCO2 [DGAT1 Inhibitor, 2-((1r,4r)-4-(4-(4-amino-5-oxo-7,8-dihydropyrimido[5,4-f][1,4]oxazepin-6(5H)-yl)phenyl)cyclohexyl)acetic acid] | – | – | – | – | > 10 µM | > 10 µM | –
CCCCCCCCCCCCCCCCCCCC(=O)N[C@H]1CC[C@@]2(C)[C@@H](C1)C[C@@H](O)[C@@H]1[C@@H]2C[C@H](O)[C@]2(C)[C@@H]([C@H](C)CCC(=O)O)CC[C@@H]12 [SCD1 Inhibitor, (R)-4-((3S,5S,7R,8R,9S,10S,12S,13R,14S,17R)-7,12-dihydroxy-3-icosanamido-10,13-dimethylhexadecahydro-1H-cyclopenta[a]phenanthren-17-yl)pentanoic acid] | – | – | – | > 10 µM | > 10 µM | > 10 µM | –
CC1(NC(=O)c2ccc3c(-c4ccccc4Cl)cn(-c4ccc(F)cc4)c3c2)CCS(=O)(=O)C1 (stereo not shown) [DGAT2 Inhibitor, 3-(2-chlorophenyl)-1-(4-fluorophenyl)-N-(3-methyl-1,1-dioxidotetrahydrothiophen-3-yl)-1H-indole-6-carboxamide] | – | – | – | > 10 µM | > 10 µM | > 10 µM | –
